Laboratory results taken from patent publication US20180256592A1, “ANTIBACTERIAL COMPOSITIONS” (priority 2015, published 2018).

Legend:
Format in all cases: cell-based
[1] = test system: highly resistant gram negative bacterial strains; experiment: MIC by agar dilution (MHA, CLSI), whole strain panel of Table 1; conditions: read-out: MICs when used alone
Method: (§1) The antibacterial activity of combinations according to the invention was investigated against various bacterial strains. In a typical study, minimum inhibitory concentrations (MICs) were determined using Muller Hinton Agar (MHA) (BD, USA) according to Clinical and Laboratory Standards Institute (CLSI) recommendations, (Clinical and Laboratory Standards Institute (CLSI), Performance Standards for Antimicrobial Susceptibility Testing, 20th Informational Supplement, M 100-S20, Volume 30, No. 1, 2010). In short, the inocula were adjusted to deliver about […] colony forming units (CFU) per spot with a multipoint inoculator (Applied Quality Services, UK). The plates were pored with doubling concentration range of the test combinations according to invention containing MHA. The plates were inoculated and were incubated at 35° C. for 18 hours.

[2] = test system: Klebsiella H 515 (KPC, class A); experiment: MIC by agar dilution (MHA, CLSI)
Method: as §1

[3] = test system: Klebsiella J 102 (TEM, SHV, OMP); experiment: MIC by agar dilution (MHA, CLSI)
Method: as §1

[4] = test system: Klebsiella H 520 (KPC, class A); experiment: MIC by agar dilution (MHA, CLSI)
Method: as §1

[5] = test system: Klebsiella J 101 (TEM, SHV, OMP); experiment: MIC by agar dilution (MHA, CLSI)
Method: as §1

[6] = test system: KP S 691 (OXA 181, SHV, TEM, CTX-M 1); experiment: MIC by agar dilution (MHA, CLSI)
Method: as §1

[7] = test system: Klebsiella H 523 (KPC, class A); experiment: MIC by agar dilution (MHA, CLSI)
Method: as §1

NCTC KP 13442 (OXA-48) = experiment: MIC by agar dilution (MHA, CLSI)
Method: as §1

[8] = test system: Klebsiella H 521 (KPC, class A); experiment: MIC by agar dilution (MHA, CLSI)
Method: as §1

[9] = test system: Klebsiella J 117 (SHV, OMP); experiment: MIC by agar dilution (MHA, CLSI)
Method: as §1

[10] = test system: KP S 440 (OXA 181, SHV, TEM, CTX-M 1); experiment: MIC by agar dilution (MHA, CLSI)
Method: as §1

[11] = test system: Klebsiella J 130 (SHV, OMP); experiment: MIC by agar dilution (MHA, CLSI)
Method: as §1

[12] = KP S 691 (OXA 181, SHV, TEM, CTX-M 1), + clavulanic acid 4 μg/ml

## O=C(O)[C@H]1/C(=C/CO)O[C@@H]2CC(=O)N21 [Clavulanic acid, clavulanic acid]
[1]
  MIC: > 32 µg/mL

## COCC1=C(C(=O)O)N2C(=O)[C@@H](NC(=O)/C(=N\OC)c3csc(N)n3)[C@H]2SC1 [Cefpodoxime, cefpodoxime]
[2]; + clavulanic acid 4 μg/ml
  MIC of Cefpodoxime in presence of Clavulanic acid (4 μg/ml): >32 μ/ml
[2]; drug alone
  MIC of Cefpodoxime, Control (Cefpodoxime alone): >32 μ/ml
[3]; + clavulanic acid 4 μg/ml
  MIC of Cefpodoxime in presence of Clavulanic acid (4 μg/ml): >32 μ/ml
[3]; drug alone
  MIC of Cefpodoxime, Control (Cefpodoxime alone): >32 μ/ml
[4]; + clavulanic acid 4 μg/ml
  MIC of Cefpodoxime in presence of Clavulanic acid (4 μg/ml): >32 μ/ml
[4]; drug alone
  MIC of Cefpodoxime, Control (Cefpodoxime alone): >32 μ/ml
[5]; + clavulanic acid 4 μg/ml
  MIC of Cefpodoxime in presence of Clavulanic acid (4 μg/ml): >32 μ/ml
[5]; drug alone
  MIC of Cefpodoxime, Control (Cefpodoxime alone): >32 μ/ml
[6]; [12]
  MIC of Cefpodoxime in presence of Clavulanic acid (4 μg/ml): >32 μ/ml
[6]; KP S 691 (OXA 181, SHV, TEM, CTX-M 1), drug alone
  MIC of Cefpodoxime, Control (Cefpodoxime alone): >32 μ/ml
[7]; + clavulanic acid 4 μg/ml
  MIC of Cefpodoxime in presence of Clavulanic acid (4 μg/ml): >32 μ/ml
[7]; drug alone
  MIC of Cefpodoxime, Control (Cefpodoxime alone): >32 μ/ml
NCTC KP 13442 (OXA-48); + clavulanic acid 4 μg/ml
  MIC of Cefpodoxime in presence of Clavulanic acid (4 μg/ml): 1 μ/ml
NCTC KP 13442 (OXA-48); drug alone
  MIC of Cefpodoxime, Control (Cefpodoxime alone): 4 μ/ml
[8]; + clavulanic acid 4 μg/ml
  MIC of Cefpodoxime in presence of Clavulanic acid (4 μg/ml): >32 μ/ml
[8]; drug alone
  MIC of Cefpodoxime, Control (Cefpodoxime alone): >32 μ/ml
[9]; + clavulanic acid 4 μg/ml
  MIC of Cefpodoxime in presence of Clavulanic acid (4 μg/ml): 4 μ/ml
[9]; drug alone
  MIC of Cefpodoxime, Control (Cefpodoxime alone): >32 μ/ml
[10]; + clavulanic acid 4 μg/ml
  MIC of Cefpodoxime in presence of Clavulanic acid (4 μg/ml): >32 μ/ml
[10]; drug alone
  MIC of Cefpodoxime, Control (Cefpodoxime alone): >32 μ/ml
[11]; + clavulanic acid 4 μg/ml
  MIC of Cefpodoxime in presence of Clavulanic acid (4 μg/ml): 32 μ/ml
[11]; drug alone
  MIC of Cefpodoxime, Control (Cefpodoxime alone): >32 μ/ml

## C[C@]1(Cn2ccnn2)[C@H](C(=O)O)N2C(=O)C[C@H]2S1(=O)=O [Tazobactam, tazobactam]
[1]
  MIC: > 32 µg/mL

## C=CC1=C(C(=O)O)N2C(=O)[C@@H](NC(=O)/C(=N\OCC(=O)O)c3csc(N)n3)[C@H]2SC1 [Cefixime, cefixime]
[2]; + clavulanic acid 4 μg/ml
  MIC in presence of Clavulanic acid (4 μg/ml): 16 µg/mL
[2]; drug alone
  MIC: > 32 µg/mL
[3]; + clavulanic acid 4 μg/ml
  MIC in presence of Clavulanic acid (4 μg/ml): >32 µg/mL
[3]; drug alone
  MIC: > 32 µg/mL
[4]; + clavulanic acid 4 μg/ml
  MIC in presence of Clavulanic acid (4 μg/ml): 16 µg/mL
[4]; drug alone
  MIC: > 32 µg/mL
[5]; + clavulanic acid 4 μg/ml
  MIC in presence of Clavulanic acid (4 μg/ml): >32 µg/mL
[5]; drug alone
  MIC: > 32 µg/mL
[6]
  MIC: > 32 µg/mL
[6]; [12]
  MIC in presence of Clavulanic acid (4 μg/ml): 16 µg/mL
[7]; + clavulanic acid 4 μg/ml
  MIC in presence of Clavulanic acid (4 μg/ml): 16 µg/mL
[7]; drug alone
  MIC: > 32 µg/mL
NCTC KP 13442 (OXA-48); + clavulanic acid 4 μg/ml
  MIC in presence of Clavulanic acid (4 μg/ml): 0.25 µg/mL
NCTC KP 13442 (OXA-48); drug alone
  MIC: 0.25 µg/mL
[8]; + clavulanic acid 4 μg/ml
  MIC in presence of Clavulanic acid (4 μg/ml): 16 µg/mL
[8]; drug alone
  MIC: > 32 µg/mL
[9]; + clavulanic acid 4 μg/ml
  MIC in presence of Clavulanic acid (4 μg/ml): 0.5 µg/mL
[9]; drug alone
  MIC: > 32 µg/mL
[10]; + clavulanic acid 4 μg/ml
  MIC in presence of Clavulanic acid (4 μg/ml): 16 µg/mL
[10]; drug alone
  MIC: > 32 µg/mL
[11]; + clavulanic acid 4 μg/ml
  MIC in presence of Clavulanic acid (4 μg/ml): 16 µg/mL
[11]; drug alone
  MIC: > 32 µg/mL
